Values after ≈ are worked out from the molar mass of the structure shown.
Assays:
[1] = system: Enterococcus faecalis; assay: Inhibition of growth of Enterococcus faecalis OC 3041.; type: functional
[2] = molecular target: T1, KinA/Spo0F (sporulation kinase A/sporulation initiation phosphotransferase F) (Bacillus subtilis (strain 168), UniProt P06628+P16497); assay: Inhibition of KinA/Sp0F system two component (TCS) from Bacillus subtilis.; type: protein assay
T1 sequence (P06628 whole entry): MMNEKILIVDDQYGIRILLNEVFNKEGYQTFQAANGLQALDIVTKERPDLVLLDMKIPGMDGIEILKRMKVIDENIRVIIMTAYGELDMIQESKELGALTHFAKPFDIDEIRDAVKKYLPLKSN
T1 sequence (P16497 whole entry): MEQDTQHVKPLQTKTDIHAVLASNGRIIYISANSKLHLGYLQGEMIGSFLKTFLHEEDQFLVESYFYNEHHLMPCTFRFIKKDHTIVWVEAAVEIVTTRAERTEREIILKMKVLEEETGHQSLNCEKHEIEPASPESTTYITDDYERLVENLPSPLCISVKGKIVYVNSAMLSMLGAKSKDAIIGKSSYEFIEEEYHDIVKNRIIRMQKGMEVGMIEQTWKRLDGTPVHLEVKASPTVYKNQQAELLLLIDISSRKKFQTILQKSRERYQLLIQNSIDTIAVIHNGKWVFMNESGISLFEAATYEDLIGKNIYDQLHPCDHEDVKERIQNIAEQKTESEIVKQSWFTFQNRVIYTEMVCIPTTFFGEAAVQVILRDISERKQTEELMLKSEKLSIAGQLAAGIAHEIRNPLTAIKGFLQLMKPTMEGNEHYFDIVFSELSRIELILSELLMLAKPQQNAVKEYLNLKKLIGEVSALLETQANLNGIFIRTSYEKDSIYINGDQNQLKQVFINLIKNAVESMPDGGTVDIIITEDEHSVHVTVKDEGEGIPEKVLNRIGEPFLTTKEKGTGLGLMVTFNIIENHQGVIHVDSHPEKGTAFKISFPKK

[3] = system: Staphylococcus aureus; assay: Inhibition of growth of Staphylococcus aureus ATCC 29213.; type: functional
[4] = system: Enterococcus faecium; assay: Inhibition of growth of Vancomycin resistant Enterococcus faecium (VRE) OC 3312.
[5] = system: Staphylococcus aureus; assay: Inhibition of growth of methicillin resistant Staphylococcus aureus MRSA OC 2089.; type: functional
[6] = system: Staphylococcus aureus; assay: Compound was evaluated for inhibition of growth of Staphylococcus aureus ATCC 29213; type: functional
[7] = system: Staphylococcus aureus; assay: Compound was evaluated for inhibition of growth of methicillin resistant Staphylococcus aureus MRSA OC 2089; type: functional
[8] = molecular target: T1, KinA/Spo0F (sporulation kinase A/sporulation initiation phosphotransferase F); assay: Inhibition of KinA/Sp0F system two component system (TCS) from Bacillus subtilis; type: protein assay

SMILES | MIC [1] [µg/mL] | IC50 [2] [µM] | MIC [3] [µg/mL] | MIC [4] [µg/mL] | MIC [5] [µg/mL] | MIC [6] [µg/mL] | MIC [7] [µg/mL] | IC50 [8] [µM]
CC(C)(C)c1cc(-c2nc3cc(C(=N)N)ccc3[nH]2)c(O)c(C(C)(C)C)c1 | 2 (≈ 5.49 µM) | 12 | 1 (≈ 2.74 µM) | 1 (≈ 2.74 µM) | 2 (≈ 5.49 µM) | – | – | –
CC(C)(C)c1cccc(-c2nc3cc(C(=N)N)ccc3[nH]2)c1O | 2 (≈ 6.49 µM) | 6 | 1 (≈ 3.24 µM) | 2 (≈ 6.49 µM) | 1 (≈ 3.24 µM) | – | – | –
CC(C)(C)c1cccc(-c2nc3cc(C(=N)N)ccc3[nH]2)c1 | – | 163 | – | – | – | – | – | –
COc1c(-c2nc3cc(C(=N)N)ccc3[nH]2)cc(C(C)(C)C)cc1C(C)(C)C | 8 (≈ 21.1 µM) | – | 4 (≈ 10.6 µM) | 4 (≈ 10.6 µM) | 4 (≈ 10.6 µM) | – | – | –
N=C(N)c1ccc2[nH]c(-c3ccc(N(c4ccccc4)c4ccccc4)cc3)nc2c1 | 4 (≈ 9.91 µM) | 17 | 4 (≈ 9.91 µM) | 4 (≈ 9.91 µM) | 16 (≈ 39.7 µM) | – | – | –
N=C(N)c1ccc2nc(-c3ccc(Oc4ccccc4)cc3)[nH]c2c1 | 16 (≈ 48.7 µM) | – | – | 16 (≈ 48.7 µM) | – | 8 (≈ 24.4 µM) | 16 (≈ 48.7 µM) | –
N=C(N)c1ccc2[nH]c(-c3ccccc3)nc2c1 | – | > 500 | – | – | – | – | – | –
Cc1onc(-c2ccccc2)c1C(=O)N[C@@H]1C(=O)N2[C@@H]1SC(C)(C)[C@@H]2C(=O)O [OXACILLIN] | 16 (≈ 39.9 µM) | – | 0.25 (≈ 0.623 µM) | > 64 | > 64 | – | – | –
CC(C)(N)CNC(=O)c1ccc2[nH]c(-c3cc(C(C)(C)C)cc(C(C)(C)C)c3O)nc2c1 | – | 10 | – | – | – | – | – | –
N=C(N)c1ccc2nc(-c3ccc(-c4ccccc4)cc3)[nH]c2c1 | – | 88 | – | – | – | – | – | –
N=C(N)c1ccc2oc(-c3ccc(Oc4ccccc4)cc3)nc2c1 | – | 138 | – | – | – | – | – | –
Cn1c(-c2ccc(Oc3ccccc3)cc2)nc2cc(C(=N)N)ccc21 | > 64 | 44 | 16 (≈ 46.7 µM) | 32 (≈ 93.5 µM) | 32 (≈ 93.5 µM) | – | – | –
COC(=O)c1ccc2[nH]c(-c3cc(C(C)(C)C)cc(C(C)(C)C)c3O)nc2c1 | – | 380 | – | – | – | – | – | –
CC(C)(C)c1cc(-c2nc3cc(C4=NCCN4)ccc3[nH]2)c(O)c(C(C)(C)C)c1 | 1 (≈ 2.56 µM) | 10 | 1 (≈ 2.56 µM) | 1 (≈ 2.56 µM) | 1 (≈ 2.56 µM) | – | – | –
N=C(N)c1ccc2cc(-c3ccc(Oc4ccccc4)cc3)[nH]c2c1 | 4 (≈ 12.2 µM) | 7.7 | 4 (≈ 12.2 µM) | 4 (≈ 12.2 µM) | 4 (≈ 12.2 µM) | – | – | –
N=C(N)c1ccc2nc(-c3ccc(Oc4ccccc4)cc3)oc2c1 | – | 49 | – | – | – | – | – | –
CC(C)(C)c1cc(-c2nc3cc(C(=N)N)ccc3[nH]2)cc(C(C)(C)C)c1 | 4 (≈ 11.5 µM) | 25 | 2 (≈ 5.74 µM) | 4 (≈ 11.5 µM) | 4 (≈ 11.5 µM) | – | – | –
CC(C)(C)c1ccc(O)c(-c2nc3cc(C(=N)N)ccc3[nH]2)c1 | 16 (≈ 51.9 µM) | – | 8 (≈ 25.9 µM) | 16 (≈ 51.9 µM) | 8 (≈ 25.9 µM) | – | – | –
N=C(N)c1ccc(Oc2ccc(-c3cc4ccc(C(=N)N)cc4[nH]3)cc2)cc1 | 1 (≈ 2.71 µM) | – | 1 (≈ 2.71 µM) | 0.5 (≈ 1.35 µM) | 0.5 (≈ 1.35 µM) | – | – | 31
CC(C)(C)c1cc(-c2nc3ccc(C(=N)N)cc3o2)c(O)c(C(C)(C)C)c1 | 2 (≈ 5.47 µM) | 15.4 | 2 (≈ 5.47 µM) | 1 (≈ 2.74 µM) | 2 (≈ 5.47 µM) | – | – | –
CC(C)(C)c1cc(-c2nc3cc(C(=N)N)ccc3o2)c(O)c(C(C)(C)C)c1 | 1 (≈ 2.74 µM) | 14 | 1 (≈ 2.74 µM) | 1 (≈ 2.74 µM) | 1 (≈ 2.74 µM) | – | – | –
